Patent publication US8309577B2, “Quinuclidine compounds as α-7 nicotinic acetylcholine receptor ligands” (Bristol-Myers Squibb Company, priority 2008, dated 2012)
Read-outs that look alike come from different tables or passages of the source.

Target: T1, α-7 nicotinic acetylcholine receptor channel expressed in HEK 293 cells (Rattus norvegicus, UniProt Q05941)
T1 construct: expressed in transfected cells
Test: Ca2+-sensitive fluorescence-based FLIPR assay, α7 nicotinic ACh receptor channel function (agonist)
Assay type: cell-based
Method: I) α7 Nicotinic Acetycholine Receptor Binding. Membranes were prepared for binding using HEK293 cells stably expressing the rat α7 nicotinic acetycholine receptor (rat α7 nAChR). Cells were homogenized at 4° C. in hypotonic lysis buffer consisting of 10 mM Tris (pH 7.4), 5 mM EDTA and protease inhibitors and centrifuged at 32000×g for 20 minutes. The pellet was washed once in membrane wash buffer consisting of 50 mM Tris (pH 7.4), 1 mM EDTA and protease inhibitors and centrifuged at 32000×g for 20 minutes. This pellet was then resuspended in assay buffer consisting 50 mM KH2PO4 (pH 7.4 at 25° C.), 1 mM EDTA, 0.005% Triton-X 100 and 0.1% (v/v) Sigma Protease Inhibitor Cocktail. Aliquots were then frozen in dry ice/ethanol and kept at −80° C. until the day of the assay. II) A Ca^2+-Sensitive, Fluorescence-Based Assay α-7 for Nicotinic Acetylcholine Receptor Channel Function In Mammalian Cells (“FLIPR”). Summary: Lead compounds are evaluated for agonist activity at […], α3β4, […], and α1β1δ1ε sub-types of nicotinic ACh receptor ion channels expressed in mammalian HEK 293 cells. Agonist potency and efficacy values are determined from kinetic fluorescence Ca^2+ influx measurements made using a 384 well FLIPR (Fluorescence Image Plate Reader). […] In this assay, channel expressing HEK cell lines seeded in 384 well assay plates are loaded with a membrane permeant fluorescent Ca^2+ indicator dye, whose 510 nm green emission signal increases in response to elevation of intracellular Ca^2+ concentration. The basal fluorescence from the cells is monitored in real time, followed by the acute addition of test compounds.
Materials and Methods: Reagents: The acetomethoxy (AM) ester of the Ca^2+ indicator dye Fluo-4 was obtained from InVitrogen, (Carlsbad, Calif.). Acetylcholine and all buffer constituents were purchased from Sigma Chemical Company, St. Louis, Mo. G418 and Minimal Essential Medium were purchased from InVitrogen Life Technologies, Carlsbad, Calif. Fetal bovine serum was purchased from (InVitrogen, Carlsbad, Calif.).
Cell Culture: HEK-293 cells were grown in Minimal Essential Medium containing 10% (v/v) fetal bovine serum at 37° C. in a 5% CO2 incubator. HEK-293 cells stably expressing the ion channels were grown in the same medium with the addition of 500 μg/ml G418.
Ca^2+ flux assays of Ca^2+ channels expressed in HEK-293 cells: HEK-293 cells expressing the ion channels of interest were plated in 384 well, black-walled, clear-bottomed, poly-D-lysine coated plates at a density of ˜20,000 cells/well in 20 μl of Minimal Essential Medium containing 10% (v/v) fetal bovine serum and incubated for 2 days at 29° C. in a 5% CO2 incubator. Prior to assay, cells were loaded with the Fluo-4 AM ester. […] Dye loading was allowed to proceed for 90 minutes at room temperature at which time the dye loading solution was removed and replaced with 40 μl/well of Hanks buffer. Cells loaded with dye were loaded onto a FLIPR384 (Molecular Devices, Sunnyvale, Calif.). Fluo-4 dye was excited using the 488 nm line of an argon laser. Emission was filtered using a 540+/−30 nm bandpass filter. For evaluation of the effects of test compounds using the Ca^2+ flux assay, compounds to be tested were provided in assay ready plates. For nicotinic receptor ion channel expressing cells, the assay was initiated by the addition of 20 μl/well of Hanks buffer containing test compounds. For all assays, data were collected at 1 Hz for 10 seconds (baseline), at which time the compound containing stimulus buffers are added, and further measurements collected at 0.33 Hz for 3 min.
Data Analysis: The statistical robustness of the nicotinic receptor Ca^2+ flux assays is determined from blanks and totals wells. […] The raw fluorescence units data files generated on the FLIPR plate reader are automatically exported and processed by in-house data analysis tools.

[1] = FLIPR α7 activity rating (EC50, nM), Table 1, HEK 293 cells, agonist Ca2+ flux
[2] = FLIPR α7 (EC50, nM), Table 1, HEK 293 cells, agonist Ca2+ flux

T1 sequence (Q05941 23-502): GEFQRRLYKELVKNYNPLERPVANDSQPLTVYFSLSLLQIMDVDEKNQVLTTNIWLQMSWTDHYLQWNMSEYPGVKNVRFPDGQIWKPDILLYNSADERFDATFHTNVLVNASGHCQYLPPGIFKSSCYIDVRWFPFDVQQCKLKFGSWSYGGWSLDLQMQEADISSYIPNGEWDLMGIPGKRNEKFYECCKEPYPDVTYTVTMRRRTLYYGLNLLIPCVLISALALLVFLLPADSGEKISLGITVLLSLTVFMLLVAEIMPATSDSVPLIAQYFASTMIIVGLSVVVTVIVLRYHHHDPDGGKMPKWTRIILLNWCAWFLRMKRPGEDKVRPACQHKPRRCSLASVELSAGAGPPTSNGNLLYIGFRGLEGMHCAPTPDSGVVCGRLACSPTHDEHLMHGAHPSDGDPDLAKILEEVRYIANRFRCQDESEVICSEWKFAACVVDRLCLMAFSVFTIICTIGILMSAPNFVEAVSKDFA

| Compound | EC50 [1] [nM] | other results |
| --- | --- | --- |
| Oc1ccc2nc(NC3=NCC4(CN5CCC4CC5)O3)sc2c1 (single isomer, unassigned) [Example 13a] | 100 to 1000 | – |
| Oc1ccc2nc(NC3=NCC4(CN5CCC4CC5)O3)sc2c1 (single isomer, unassigned) [Example 13b] | < 100 | – |
| C1CCc2sc(NC3=NCC4(CN5CCC4CC5)O3)nc2C1 (single isomer, unassigned) [Example 14b] | 100 to 1000 | – |
| CC(C)c1csc(NC2=NCC3(CN4CCC3CC4)O2)n1 (single isomer, unassigned) [Example 15a] | 1000 to 100000 | EC50 [2]: 6350 nM |
| CC(C)c1csc(NC2=NCC3(CN4CCC3CC4)O2)n1 (single isomer, unassigned) [Example 15b] | 100 to 1000 | – |
| c1csc(NC2=NCC3(CN4CCC3CC4)O2)n1 (single isomer, unassigned) [Example 16a] | 1000 to 100000 | EC50 [2]: 3170 nM |
| c1csc(NC2=NCC3(CN4CCC3CC4)O2)n1 (single isomer, unassigned) [Example 16b] | 100 to 1000 | – |
| COc1ccc(-c2csc(NC3=NCC4(CN5CCC4CC5)O3)n2)cc1 (single isomer, unassigned) [Example 20a] | 100 to 1000 | – |
| COc1ccc(-c2csc(NC3=NCC4(CN5CCC4CC5)O3)n2)cc1 (single isomer, unassigned) [Example 20b] | – | EC50 [2]: 318 nM; EC50 (read-out: FLIPR α7 activity rating (EC50), Table 1, HEK 293 cells, agonist Ca2+ flux): 100 to 1000 nM |
| O=C(c1ccc2nc(NC3=NCC4(CN5CCC4CC5)O3)sc2c1)N1CCCC1 (stereo not shown) [Example 3] | 1000 to 100000 | EC50: 3840 nM |
| COc1ccc2nc(NC3=NCC4(CN5CCC4CC5)O3)sc2c1 (stereo not shown) [Example 5, N-(6-Methoxybenzo[d]thiazol-2-yl)-4H-1′-azaspiro[oxazole-5,3′-bicyclo[2.2.2]octan]-2-amine] | 100 to 1000 | – |
| Cc1cccc2sc(NC3=NCC4(CN5CCC4CC5)O3)nc12 (stereo not shown) [Example 6, N-(4-Methylbenzo[d]thiazol-2-yl)-4H-1′-azaspiro[oxazole-5,3′-bicyclo[2.2.2]octan]-2-amine] | 100 to 1000 | – |
| Clc1ccc2nc(NC3=NCC4(CN5CCC4CC5)O3)sc2c1 (stereo not shown) [Example 9, N-(6-Chlorobenzo[d]thiazol-2-yl)-4H-1′-azaspiro[oxazole-5,3′-bicyclo[2.2.2]octan]-2-amine] | 100 to 1000 | – |
| Cn1c(NC2=NCC3(CN4CCC3CC4)O2)nc2ccccc21 (stereo not shown) [Example 10, N-(1-methyl-1H-benzo[d]imidazol-2-yl)-4H-1′-azaspiro[oxazole-5,3′-bicyclo[2.2.2]octan]-2-amine] | 100 to 1000 | – |
| CCOc1ccc2nc(NC3=NCC4(CN5CCC4CC5)O3)sc2c1 (stereo not shown) [Example 11, N-(6-Ethoxybenzo[d]thiazol-2-yl)-4H-1′-azaspiro[oxazole-5,3′-bicyclo[2.2.2]octan]-2-amine] | 100 to 1000 | – |
| Cc1ccc2nc(NC3=NCC4(CN5CCC4CC5)O3)sc2c1 (stereo not shown) [Example 12, N-(6-Methylbenzo[d]thiazol-2-yl)-4H-1′-azaspiro[oxazole-5,3′-bicyclo[2.2.2]octan]-2-amine] | 100 to 1000 | – |
| CC(=O)Nc1ccc2nc(NC3=NC[C@@]4(CN5CCC4CC5)O3)sc2c1 [Example 21, (R)—N-(2-(4H-1′-Azaspiro[oxazole-5,3′-bicyclo[2.2.2]octane]-2-ylamino)benzo[d]thiazol-6-yl)acetamide] | < 100 | – |

| Compound | EC50 [1] [nM] | other results |
| --- | --- | --- |
| COc1ccc2nc(NC3=NC[C@@]4(CN5CCC4CC5)O3)nn2c1 [Example 24, (R)—N-(6-Methoxy-[1,2,4]-triazolo[1,5-a]pyridin-2-yl)-4H-1′-azaspiro[oxazole-5,3′-bicyclo[2.2.2]octan]-2-amine] | < 100 | – |
| FC(F)(F)c1cnc(NC2=NC[C@@]3(CN4CCC3CC4)O2)cn1 [Example 25, (R)—N-(5-(Trifluoromethyl)pyrazin-2-yl)-4H-1′-azaspiro[oxazole-5,3′-bicyclo[2.2.2]octan]-2-amine] | 100 to 1000 | EC50 [2]: 510 nM |
| Fc1ccc2c(NC3=NC[C@@]4(CN5CCC4CC5)O3)n[nH]c2c1 [Example 26, (R)—N-(6-Fluoro-1H-indazol-3-yl)-4H-1′-azaspiro[oxazole-5,3′-bicyclo[2.2.2]octan]-2-amine] | < 100 | – |
| c1ccc(-c2cncc(NC3=NC[C@@]4(CN5CCC4CC5)O3)c2)cc1 [Example 28, (R)—N-(5-Phenylpyridin-3-yl)-4H-1′-azaspiro[oxazole-5,3′-bicyclo[2.2.2]octan]-2-amine] | 1000 to 100000 | EC50: 4010 nM |
| c1ccc(-c2cc(NC3=NC[C@@]4(CN5CCC4CC5)O3)ccn2)cc1 [Example 29, (R)—N-(2-Phenylpyridin-4-yl)-4H-1′-azaspiro[oxazole-5,3′-bicyclo[2.2.2]octan]-2-amine] | 100 to 1000 | – |
| c1ccc(-c2cccc(NC3=NC[C@@]4(CN5CCC4CC5)O3)n2)cc1 [Example 30, (R)—N-(6-Phenylpyridin-2-yl)-4H-1′-azaspiro[oxazole-5,3′-bicyclo[2.2.2]octan]-2-amine] | 100 to 1000 | – |
| Cn1nc(NC2=NC[C@@]3(CN4CCC3CC4)O2)c2ccc(OC(F)F)cc21 [Example 31, (R)—N-(6-(Difluoromethoxy)-1-methyl-1H-indazol-3-yl)-4H-1′-azaspiro[oxazole-5,3′-bicyclo[2.2.2]octan]-2-amine] | 100 to 1000 | – |
| FC(F)Oc1ccc2nc(NC3=NC[C@@]4(CN5CCC4CC5)O3)sc2n1 [Example 32, (R)—N-(5-(Difluoromethoxy)thiazolo[5,4-b]pyridin-2-yl)-4H-1′-azaspiro[oxazole-5,3′-bicyclo[2.2.2]octan]-2-amine] | 100 to 1000 | – |
| c1nc(N2CCCC2)cnc1NC1=NC[C@@]2(CN3CCC2CC3)O1 [Example 34, (R)—N-(5-(Pyrrolidin-1-yl)pyrazin-2-yl)-4H-1′-azaspiro[oxazole-5,3′-bicyclo[2.2.2]octan]-2-amine] | 1000 to 100000 | – |
| O=C1CCCN1c1cnc(NC2=NC[C@@]3(CN4CCC3CC4)O2)cn1 [Example 35, (R)-1-(5-(4H-1′-Azaspiro[oxazole-5,3′-bicyclo[2.2.2]octane]-2-ylamino)pyrazin-2-yl)pyrrolidin-2-one] | 1000 to 100000 | EC50: 4030 nM |
| c1cncc(-c2cnc(NC3=NC[C@@]4(CN5CCC4CC5)O3)cn2)c1 [Example 36, (R)—N-(5-(Pyridin-3-yl)pyrazin-2-yl)-4H-1′-azaspiro[oxazole-5,3′-bicyclo[2.2.2]octan]-2-amine] | 100 to 1000 | – |
| COc1ccc(-c2cnc(NC3=NC[C@@]4(CN5CCC4CC5)O3)cn2)cn1 [Example 37, (R)—N-(5-(6-Methoxypyridin-3-yl)pyrazin-2-yl)-4H-1′-azaspiro[oxazole-5,3′-bicyclo[2.2.2]octan]-2-amine] | 1000 to 100000 | – |
| COc1ccc2nc(NC3=NC[C@@]4(CN5CCC4CC5)O3)cnc2c1 [Example 38, (R)—N-(6-Methoxyquinoxalin-2-yl)-4H-1′-azaspiro[oxazole-5,3′-bicyclo[2.2.2]octan]-2-amine] | < 100 | – |
| FC(F)Oc1cnc(NC2=NC[C@@]3(CN4CCC3CC4)O2)nc1 [Example 39, (R)—N-(5-(Difluoromethoxy)pyrimidin-2-yl)-4H-1′-azaspiro[oxazole-5,3′-bicyclo[2.2.2]octan]-2-amine] | < 100 | – |
| Cc1cnc(NC2=NC[C@@]3(CN4CCC3CC4)O2)nc1C [Example 40, (R)—N-(4,5-Dimethylpyrimidin-2-yl)-4H-1′-azaspiro[oxazole-5,3′-bicyclo[2.2.2]octan]-2-amine] | < 100 | – |
| COc1ccc(-c2cc(NC3=NC[C@@]4(CN5CCC4CC5)O3)ncn2)cc1 [Example 42, (R)—N-(6-(4-Methoxyphenyl)pyrimidin-4-yl)-4H-1′-azaspiro[oxazole-5,3′-bicyclo[2.2.2]octan]-2-amine] | < 100 | – |
